# US7232828B2, “PPAR Ligands that do not cause fluid retention, edema or congestive heart failure” (Bethesda Pharmaceuticals, Inc., priority 2002, dated 2007)
# pEC50: −log10 of the molar value. “Also recorded” adds a separate entry of the source. Where two headings read alike, the source gives them in different places.
# Assays:
# [1] = test system: mouse preadipocyte cell line (3T3-L1); test: In vitro adipocyte differentiation (adipogenesis) activity; type: cell-based
# Method: The following examples 2 and 3 provide a generic means to measure adipocyte differentation to determine if one has an insulin-sensitizing agent. […] The cells are then plated at 1.5×10^4/cm^2 in a 96-well tissue culture plate (view plate, 96 white, Packard) coated with type 1 collagen. […] The compounds added from a stock solution of dimethyl sulfoxide (DMSO). […] DMSO (0.1%) was added to the control cultures. The medium was replaced with maintenance medium (DMEM supplemented with 5% of FBS and 100 ng/mL of insulin), and the cells cultured for 2 more days. Activity of stimulation of adipogenesis was determined by exposure of the cells to [14-C]-acetic acid (7.4 kBq/mL), and uptake of [14-C]-acetic acid monitored after 1 h of incubation. The medium is discarded and the cells washed twice with phosphate-buffered saline. The cells are air-dried, and […] of scintillation cocktail (Microscint-20, Packard) added to the wells, and counted with a Packard TopCount microplate scintillation counter.
# [2] = biological target: T1, PPARγ (Homo sapiens, UniProt P37231); test: PPARγ transactivation assay in transfected CV-1 cells (luciferase reporter); type: cell-based; conditions: for Activation of PPARγ (in words): at doses reasonably achievable at therapeutic doses
# T1 construct: expressed in transfected cells; host or cells: CV-1 cells (CCL-70, ATCC)
# T1 sequence (P37231 1-505): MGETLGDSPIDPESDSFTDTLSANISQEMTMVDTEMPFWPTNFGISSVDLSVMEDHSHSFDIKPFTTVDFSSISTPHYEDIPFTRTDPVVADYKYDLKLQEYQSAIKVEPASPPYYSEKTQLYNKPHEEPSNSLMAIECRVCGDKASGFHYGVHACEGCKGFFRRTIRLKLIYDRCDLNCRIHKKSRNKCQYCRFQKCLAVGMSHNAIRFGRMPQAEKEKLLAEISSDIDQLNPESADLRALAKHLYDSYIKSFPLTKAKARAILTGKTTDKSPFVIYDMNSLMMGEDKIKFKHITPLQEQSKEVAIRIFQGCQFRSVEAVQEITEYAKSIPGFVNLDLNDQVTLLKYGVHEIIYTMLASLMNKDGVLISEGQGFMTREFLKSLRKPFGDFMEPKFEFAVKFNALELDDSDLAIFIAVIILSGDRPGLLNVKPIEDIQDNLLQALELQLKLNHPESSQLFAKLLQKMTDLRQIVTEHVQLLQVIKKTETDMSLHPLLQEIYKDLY
# Method: ARBs, or derivatives thereof, may be tested for their ability to activate the various PPAR isoforms by utilizing standard screening methods known to those skilled in the art including but not limited to cell based transactivation assays or cell free assays that test the ability of a compound to activate a PPAR construct by measuring the output of a reporter signal that reflects the extent of the PPAR activation. For example, the angiotensin receptor blocker telmisartan is added to the culture media of CV1 cells or other cells that can be transfected with a full length or partial PPAR cDNA sequence together with a reporter construct containing a PPAR response element or other appropriate response element fused to a reporter gene such as luciferase. […] Cell extracts were assayed for luciferase and β-galactosidase activity using Promega (Madison, Wis.) assay systems. All treatments were performed in triplicate, and normalized for β-galactosidase activity. Agonist concentrations yielding half maximal activation (EC50 values) were calculated using GraphPad Prism version 3.03 (GraphPad Software, Inc., San Diego, Calif.).
# [3] = patients with mild hypertension; cited from earlier work
# [4] = type: in vivo, human
# Excerpt: Insulin resistance is defined as a state in which circulating insulin levels in excess of the normal response to a glucose load are required to maintain the euglycemic state (Ford ES, et al. JAMA. (2002) 287:356-9). Insulin resistance, and the response of a patient with insulin resistance to therapy, may be quantified by assessing the homeostasis model assessment to insulin resistance (HOMA-IR) score, a reliable indicator of insulin resistance (Katsuki A, et al. Diabetes Care 2001;24:362-5). The estimate of insulin resistance by the homeostasis assessment model (HOMA)-IR score is calculated with the formula (Galvin P, et al. Diabet Med 1992;9:921-8): HOMA-IR=[fasting serum insulin (μU/mL)]×[fasting plasma glucose (mmol/L)/22.5]
# A person with the metabolic syndrome was selected for therapy. […] The patient has the metabolic syndrome as defined by the National Cholesterol Education Program. The metabolic syndrome is associated with a 5-9 fold increase in the risk for developing type 2 diabetes and a 2-3 fold increase risk in cardiovascular mortality.
# [5] = Clinical trial in a patient with hypertension, hypertriglyceridemia and type 2 diabetes
# [6] = conventional oral dosing; cited from earlier work
# [7] = Clinical trial in a patient with osteoarthritis and inflammation (elevated CRP); type: in vivo, human; conditions: for Serum CRP level: baseline 7.9
# Excerpt: A person with osteoarthritis and inflammation as judged by elevated C-reactive protein (CRP) levels was selected for therapy.
# [8] = obese Zucker rat, oral, extremely high dose; cited from earlier work
# [9] = test system: human preadipocytes; conditions: high concentrations; cited from earlier work
# [10] = 160 mg/day oral, after seven weeks
smiles,measurement,setting,value
CCCCc1ncc(/C=C(\Cc2cccs2)C(=O)O)n1Cc1ccc(C(=O)O)cc1 [eprosartan],Promotion of adipogenesis (in words),[1],did not promote adipogenesis
same,Activation of PPARγ (in words),[2],do not activate PPARγ
CCCCc1nc(Cl)c(CO)n1Cc1ccc(-c2ccccc2-c2nn[nH]n2)cc1 [losartan],"Effect on glucose metabolism, insulin sensitivity, and serum concentrations",[3],neutral effect
CCCc1nc2c(C)cc(-c3nc4ccccc4n3C)cc2n1Cc1ccc(-c2ccccc2C(=O)O)cc1 [telmisartan],Promotion of adipogenesis (in words),[1],promote adipogenesis
same,Activation of PPARγ / luciferase reporter gene activity (in words),[2],can activate PPARγ; also recorded: significant increase in reporter gene activity
same,pEC50,[2],5.25
same,PPARγ activation relative to maximum level of activity achieved by full agonists pioglitazone and rosiglitazone,[2]; CV-1 cells,25%-30%
same,PPARγ activation (fold),"[2]; tested at 1-5 μM, CV-1 cells, 24 hr",5-8 fold
same,Diagnostic criteria of the metabolic syndrome (NCEP),"[4]; 80 mg/day oral, after two weeks",no longer meets the diagnostic criteria of the metabolic syndrome
same,Fasting glucose,"[4]; 80 mg/day oral, after two weeks, baseline 118",105 mg/dL
same,Fasting triglyceride level,"[4]; 80 mg/day oral, after two weeks, baseline 129",115 mg/dL
same,Blood pressure,"[4]; 80 mg/day oral, after two weeks, baseline 160/79",130/69
same,Insulin resistance as determined by HOMA-IR score (in words),[4]; patient with the metabolic syndrome,improved insulin resistance
same,HDL cholesterol,"[5]; 80 mg/day oral, after three weeks, baseline 48",50 mg/dL
same,Blood pressure,"[5]; 80 mg/day oral, after three weeks, baseline 160/90",143/91
same,Fasting glucose,"[5]; 80 mg/day oral, after three weeks, baseline 183",188 mg/dL
same,Triglyceride,"[5]; 80 mg/day oral, after three weeks, baseline 264",281 mg/dL
same,Blood pressure,[5]; [10],131/81
same,Glucose level,[5]; [10],145 mg/dL
same,HDL cholesterol,[5]; [10],60 mg/dL
same,Triglyceride level,[5]; [10],178 mg/dL
same,Blood HDL-cholesterol (in words),[5]; patient with type 2 diabetes,elevated blood HDL-cholesterol
same,Hyperglycemia (in words),[5]; patient with type 2 diabetes,lowered the hyperglycemia
same,Plasma triglycerides (in words),[5]; patient with type 2 diabetes,lowers plasma triglycerides
same,"Fluid retention, peripheral edema, pulmonary edema, congestive heart failure on clinical examination","[5]; type 2 diabetes patient, 160 mg/day","no evidence of any increase in fluid retention, peripheral edema, pulmonary edema, or congestive heart failure"
same,Concentrations that can be achieved in plasma,[6],1000 to 5000 nM
same,Serum CRP level,"[7]; 80 mg/day oral, after 6 weeks",4.1 mg/L
same,Symptoms of inflammation and osteoarthritis,"[7]; 80 mg/day oral, after 9 weeks",stabilized
same,Serum CRP level,"[7]; 80 mg/day oral, after 9 weeks",3.9 mg/L
same,"Fluid retention, peripheral edema, pulmonary edema, congestive heart failure on clinical examination","[7]; osteoarthritis patient, 80 mg/day","no evidence of any increase in fluid retention, peripheral edema, pulmonary edema, or congestive heart failure"
CCCCC1=NC2(CCCC2)C(=O)N1Cc1ccc(-c2ccccc2-c2nnn[nH]2)cc1 [irbesartan],Insulin sensitivity,[8],improved insulin sensitivity
same,Lipid levels,[8],failed to improve lipid levels
same,Activation of PPARγ / luciferase reporter gene activity (in words),[2],can activate PPARγ; also recorded: found to activate PPARgamma
same,PPARγ activation (fold activation),"[2]; tested at 10 μM, CV-1 cells",2-3 fold
same,Adipogenesis,[9],can enhance adipogenesis
CCCCC(=O)N(Cc1ccc(-c2ccccc2-c2nnn[nH]2)cc1)[C@H](C(=O)O)C(C)C [valsartan],Promotion of adipogenesis (in words),[1],did not promote adipogenesis
same,Activation of PPARγ (in words),[2],do not activate PPARγ
